Legend:
GSC lines (387 and 3565) = assay: Temozolomide cytotoxicity assay; type: cell-based, human; details: 7 days
Protocol: Two GSC lines (387 and 3565) were treated with indicated concentrations of temozolomide for 7 days. Relative cell number was assayed by CellTiter-Glo on day 7 and normalized to PBS control.
GSCs were plated at 1,000 cells/well in 96-well tissue culture treated plates (TPP) and allowed to attach overnight. For viral infection and growth inhibition assays, wild-type ZIKV-Dakar, ZIKV-Brazil, or mouse adapted ZIKV-Dakar were used at an MOI of 5. For combined drug+virus therapy experiments, wild-type parental ZIKV-Cambodia and its derivative ZIKV-E218A were used for infection. Temozolomide (TMZ, Sigma) was dissolved in PBS and diluted in Neurobasal complete media. ZIKV was added at an MOI of 5 by itself or 4 h before TMZ (250 μM) addition. Cell supernatants were stored at −80° C. for subsequent analysis.

recurrent GBM = details: cited from earlier work

Row | Compound | effective TMZ concentration (GSC lines (387 and 3565)) | safety in patients (recurrent GBM; in vivo) | overall response rate (recurrent GBM; recurrent GBM)
1 | Cn1nnc2c(C(N)=O)ncn2c1=O [TMZ, Temozolomide] | 250 µM |  | 
2 | nivolumab: immune checkpoint inhibitor tested in CheckMate 143 |  | safe | lower than the current standard, bevacizumab
